Reference: patent US20220195027A1, “ANTI-ANGIOGENESIS THERAPY FOR THE TREATMENT OF PREVIOUSLY TREATED BREAST CANCER” (Genentech, Inc., priority 2009, published 2022)
Where two headings read alike, the source gives them in different places.

How the values were obtained:
[1] = test system: previously treated metastatic HER2-negative breast cancer; assay: RIBBON 2 Phase III study, efficacy (PFS, OS) of bevacizumab or placebo plus chemotherapy; assay type: in vivo, human; settings: for Progression free survival, result in words: in combination with chemotherapy, compared to chemotherapy alone
Method: The doctors treating the women in the study chose the type of chemotherapy used in combination with Avastin and the chemotherapies were assessed together in the primary endpoint analysis. […] Ribbon 2 was an international, multicenter, randomized, double-blind, placebo-controlled clinical study that enrolled 684 patients with metastatic HER2-negative breast cancer who had previously received chemotherapy for their metastatic disease. See Study Conduct in Table 1 and Patient Characteristics in Table 2. The trial evaluated the addition of either Avastin® (bevacizumab) or placebo to an investigator's choice of chemotherapy. The following chemotherapy regimens were used in the study: taxanes: paclitaxel, protein-bound paclitaxel or docetaxel; gemcitabine; capecitabine; or vinorelbine. Bevacizumab (5 mg/kg Weekly Equivalent) 15 mg/kg IV q 3 weeks; or […] Plus Chemotherapy Taxane • Paclitaxel (e.g., Taxol®): 90 mg/m^2 IV every week for 3 weeks followed by 1 week of rest; or • Paclitaxel (e.g., Taxol®): 175 mg/m^2 IV every 3 weeks; or • Paclitaxel protein-bound particles (Abraxane®): 260 mg/m^2 IV every 3 weeks; or • Docetaxel (Taxotere®): 75-100 mg/m^2 IV every 3 weeks; or Gemcitabine (Gemzar®): 1250 mg/m^2 IV on Days 1 and 8 of each 3-week cycle; or Vinorelbine (Navelbine®): 30 mg/m^2 IV every week; or […] In the study, PFS was defined as the time from randomization to disease progression or death as assessed by the treating physicians in the study (investigator-assessed). Secondary endpoints included objective response rate, duration of response, one-year survival rate, overall survival, PFS assessment by chemotherapy type and safety. […] See Table 3 Primary Efficacy Analysis of PFS and FIG. 2 (Primary Endpoint of PFS) and FIG. 3 (Cohort-Specific Analyses of PFS). PFS results were generally consistent across chemotherapy cohorts with the exception of the small vinorelbine sub-group. Other sub-groups (age, triple negative, etc.) were generally consistent with the primary PFS results. The observed improvement in overall PFS was supported by the secondary efficacy endpoint of ORR. See Table 4 for Interim Efficacy Analysis of OS. […] See, e.g., Table 5, Safety Summary, Safety Population, Table 6 Selected AEs, Safety Population and Table 7 Safety Summary by Chemotherapy Cohort, Safety Population. Bevacizumab was beneficial to patients as a second-line treatment.

[2] = RIBBON 2 Phase III study, safety (adverse events), safety population; assay type: in vivo; settings: in combination with chemotherapy
Source text: Ribbon 2 was an international, multicenter, randomized, double-blind, placebo-controlled clinical study that enrolled 684 patients with metastatic HER2-negative breast cancer who had previously received chemotherapy for their metastatic disease. […] The trial evaluated the addition of either Avastin® (bevacizumab) or placebo to an investigator's choice of chemotherapy. The following chemotherapy regimens were used in the study: taxanes: paclitaxel, protein-bound paclitaxel or docetaxel; gemcitabine; capecitabine; or vinorelbine.

[3] = test system: metastatic breast cancer; settings: MBC patients with prior anthracycline therapy; cited from earlier work
[4] = test system: metastatic breast cancer; settings: patients who previously received or were not candidates for anthracyclines; cited from earlier work

Row | Compound | PFS stratified analysis HR (95% CI) ([1]; Chemo/BV vs Chemo/PL, ITT population) | PFS median ([1]; ITT population, investigator-assessed) [months] | Progression free survival, result in words [1] | Progression free survival, result in words ([1]; listed as Avastin) | Safety signals, result in words [2] | Safety signals, result in words ([2]; listed as Avastin) | survival [3] [months] | time to disease progression [3] [months] | survival [4] [months] | time to progression [4] [months]
1 | bevacizumab: recombinant humanized anti-VEGF monoclonal antibody with human IgG1 framework and CDRs from murine antibody A.4.6.1 | 0.775 | 7.2 | increase in progression free survival | increased the time | No new bevacizumab safety signals were observed | no new Avastin safety signals were observed |  |  |  | 
2 | CC(=O)O[C@@]12CO[C@@H]1C[C@H](O)[C@@]1(C)C(=O)[C@H](O)C3=C(C)[C@@H](OC(=O)[C@H](O)[C@@H](NC(=O)OC(C)(C)C)c4ccccc4)C[C@@](O)([C@@H](OC(=O)c4ccccc4)[C@H]21)C3(C)C [docetaxel] |  |  |  |  |  |  | 11.4 | 4.4 | 11.5 | 4.2
